Measurements reported in US10730874B2 (Shire Human Genetic Therapies, Inc., priority 2018, dated 2020).
Read-outs that look alike come from different tables or passages of the source.

Molecular target: human activated kallikrein enzyme (plasma kallikrein) (Homo sapiens (Human), UniProt P03952)
Assay: Inhibition of human activated plasma kallikrein, fluorogenic peptide substrate assay, 500 pM enzyme format
Format: biochemical
Conditions: read-out: Primary Dose Response Assay: Average EC50
Method: Example compounds were evaluated for inhibition of the human activated kallikrein enzyme in two formats of an assay employing a fluorogenic peptide substrate. In one assay format, the concentrations of reagents were as follows: 20 mM Tris pH 7.5, 1 mM EDTA, 150 mM sodium chloride, 0.1% PEG-400, 0.1% Triton X-100, 500 pM activated kallikrein enzyme, 300 uM Pro-Phe-Arg-7-amido-4-methylcoumarin substrate. Prior to reaction initiation with substrate, enzyme and inhibitors were preincubated for 30 min at RT. After initiation with substrate, reactions were incubated for 10 min at RT and fluorescence emission at 460 nm from 380 nm excitation measured with a microplate reader. In another assay format, the concentrations of reagents were as follows: 20 mM Tris pH 7.5, 1 mM EDTA, 150 mM sodium chloride, 0.1% PEG-400, 0.1% Triton X-100, 5 pM activated kallikrein enzyme, 300 uM Pro-Phe-Arg-7-amido-4-methylcoumarin substrate. Prior to reaction initiation with substrate, enzyme and inhibitors were preincubated for 30 min at RT. After initiation with substrate, reactions were incubated for 18 h at RT and fluorescence emission at 460 nm from 380 nm excitation measured with a microplate reader.

[1] = 500 pM activated kallikrein enzyme, 300 uM Pro-Phe-Arg-7-amido-4-methylcoumarin substrate, 30 min preincubation, 10 min at RT

Chain of human activated kallikrein enzyme (plasma kallikrein) (P03952 391-638): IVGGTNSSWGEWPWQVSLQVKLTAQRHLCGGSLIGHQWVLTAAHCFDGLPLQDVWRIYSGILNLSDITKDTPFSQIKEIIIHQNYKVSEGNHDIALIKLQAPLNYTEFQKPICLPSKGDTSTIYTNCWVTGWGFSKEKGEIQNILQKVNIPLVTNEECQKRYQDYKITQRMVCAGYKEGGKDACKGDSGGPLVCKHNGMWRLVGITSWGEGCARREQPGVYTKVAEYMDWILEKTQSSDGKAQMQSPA
Chain of human activated kallikrein enzyme (plasma kallikrein) (P03952 20-390 partner): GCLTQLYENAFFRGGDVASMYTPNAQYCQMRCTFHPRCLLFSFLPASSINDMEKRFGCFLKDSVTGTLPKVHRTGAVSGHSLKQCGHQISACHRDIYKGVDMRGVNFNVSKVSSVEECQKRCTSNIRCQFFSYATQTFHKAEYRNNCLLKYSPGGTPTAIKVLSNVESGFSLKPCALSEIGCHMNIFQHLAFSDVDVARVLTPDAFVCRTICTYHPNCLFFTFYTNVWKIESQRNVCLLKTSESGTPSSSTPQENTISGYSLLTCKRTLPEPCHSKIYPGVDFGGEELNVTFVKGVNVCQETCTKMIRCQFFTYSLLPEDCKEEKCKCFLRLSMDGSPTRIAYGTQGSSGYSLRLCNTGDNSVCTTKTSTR

SMILES	EC50 [1] [nM]	EC50 (comparative compounds (Table II), assay format with 500 pM (500 μM in the source) activated kallikrein) [nM]
CC(C)(Cc1cc(C2CC2)cn2cc(Cn3cc(C(=O)NCc4ncn5ccc(Cl)cc45)nn3)nc12)C(=O)O [Example I-170, 3-(2-((4-(((7-chloroimidazo[1,5-a]pyridin-1-yl)methyl)carbamoyl)-1H-1,2,3-triazol-1-yl)methyl)-6-cyclopropylimidazo[1,2-a]pyridin-8-yl)-2,2-dimethylpropanoic acid]	< 1	
N#Cc1cccc2nc(Cn3cc(C(=O)NCc4ncn5ccc(Br)cc45)cn3)cn12 [Example I-55, N-((7-bromoimidazo[1,5-a]pyridin-1-yl)methyl)-1-((5-cyanoimidazo[1,2-a]pyridin-2-yl)methyl)-1H-pyrazole-4-carboxamide]	10 to 100	
O=C(NCc1ncn2ccc(Cl)cc12)c1nnc(Cc2cn3cc(C4CC4)ccc3n2)[nH]1 [Example I-161, N-((7-chloroimidazo[1,5-a]pyridin-1-yl)methyl)-5-((6-cyclopropylimidazo[1,2-a]pyridin-2-yl)methyl)-4H-1,2,4-triazole-3-carboxamide]	1 to 10	
CCOC(=O)Cc1cc(C2CC2)cn2cc(Cn3cc(C(=O)NCc4ncn5ccc(Cl)c(F)c45)nn3)nc12 [Example I-157a, ethyl 2-(2-((4-(((7-chloro-8-fluoroimidazo[1,5-a]pyridin-1-yl)methyl)carbamoyl)-1H-1,2,3-triazol-1-yl)methyl)-6-cyclopropylimidazo[1,2-a]pyridin-8-yl)acetate]	< 1	
O=C(NCc1ncn2ccc(Cl)cc12)c1cnn(Cc2cn3cc(C4CC4)cc(C4CC4C(=O)O)c3n2)c1 (stereo not drawn) [Example I-133, 2-(2-((4-(((7-chloroimidazo[1,5-a]pyridin-1-yl)methyl)carbamoyl)-1H-pyrazol-1-yl)methyl)-6-cyclopropylimidazo[1,2-a]pyridin-8-yl)cyclopropane-1-carboxylic acid]	< 1	
O=C(NCc1ncn2ccc(Cl)c(F)c12)c1cn(Cc2cn3cc(Cl)c(Cl)cc3n2)nn1 [Example I-188, N-((7-chloro-8-fluoroimidazo[1,5-a]pyridin-1-yl)methyl)-1-((6,7-dichloroimidazo[1,2-a]pyridin-2-yl)methyl)-1H-1,2,3-triazole-4-carboxamide]	1 to 10	
CC(C)c1ccc2nc(Cn3cc(C(=O)NCc4ncn5ccc(Cl)cc45)cn3)cn2c1 [Example I-8, N-((7-chloroimidazo[1,5-a]pyridin-1-yl)methyl)-1-((6-isopropylimidazo[1,2-a]pyridin-2-yl)methyl)-1H-pyrazole-4-carboxamide]	< 1	
O=C(NCc1ncn2ccc(Cl)cc12)c1cnn(Cc2cn3c(Br)cccc3n2)c1 [Example I-27, 1-((5-bromoimidazo[1,2-a]pyridin-2-yl)methyl)-N-((7-chloroimidazo[1,5-a]pyridin-1-yl)methyl)-1H-pyrazole-4-carboxamide]	1 to 10	
O=C(NCc1ncn2ccc(Br)c(F)c12)c1nnc(Cc2cn3cc(C4CC4)ccc3n2)o1 [Example I-136, N-((7-bromo-8-fluoroimidazo[1,5-a]pyridin-1-yl)methyl)-5-((6-cyclopropylimidazo[1,2-a]pyridin-2-yl)methyl)-1,3,4-oxadiazole-2-carboxamide]	< 1	
O=C(NCc1ncn2ccc(Cl)cc12)c1cnn(Cc2cn3cc(C4CC4)ccc3n2)n1 [Example I-121, N-((7-chloroimidazo[1,5-a]pyridin-1-yl)methyl)-2-((6-cyclopropylimidazo[1,2-a]pyridin-2-yl)methyl)-2H-1,2,3-triazole-4-carboxamide]	< 1	
COCc1c(C(=O)NCc2ncn3ccc(Cl)cc23)cnn1Cc1cn2cc(C3CC3)ccc2n1 [Example I-32, N-((7-chloroimidazo[1,5-a]pyridin-1-yl)methyl)-1-((6-cyclopropylimidazo[1,2-a]pyridin-2-yl)methyl)-5-(methoxymethyl)-1H-pyrazole-4-carboxamide]	10 to 100	
Cc1ccc2nc(Cn3cc(C(=O)NCc4ncn5ccc(Cl)cc45)cn3)cn2c1C [Example I-130]	10 to 100	
CCOC(=O)c1nnc(Cc2cc(C3CC3)cn3cc(Cn4cc(C(=O)NCc5ncn6ccc(Cl)c(F)c56)nn4)nc23)o1 [Example I-210a, ethyl 5-((2-((4-(((7-chloro-8-fluoroimidazo[1,5-a]pyridin-1-yl)methyl)carbamoyl)-1H-1,2,3-triazol-1-yl)methyl)-6-cyclopropylimidazo[1,2-a]pyridin-8-yl)methyl)-1,3,4-oxadiazole-2-carboxylate]	< 1	
O=C(NCc1ncn2ccc(Cl)cc12)c1cnn(Cc2cn3c(CO)cccc3n2)c1 [Example I-62, N-((7-chloroimidazo[1,5-a]pyridin-1-yl)methyl)-1-((5-(hydroxymethyl)imidazo[1,2-a]pyridin-2-yl)methyl)-1H-pyrazole-4-carboxamide]	100 to 2000	
Cc1cc2nc(Cn3cc(C(=O)NCc4ncn5ccc(Cl)cc45)cn3)cn2cc1C1CC1 [Example I-16, N-((7-chloroimidazo[1,5-a]pyridin-1-yl)methyl)-1-((6-cyclopropyl-7-methylimidazo[1,2-a]pyridin-2-yl)methyl)-1H-pyrazole-4-carboxamide]	1 to 10	
O=C(NCc1ncn2ccc(Cl)c(F)c12)c1cnn(Cc2cn3cc(C4CC4)cc(Cc4nnco4)c3n2)c1 [Example I-214, 1-((8-((1,3,4-oxadiazol-2-yl)methyl)-6-cyclopropylimidazo[1,2-a]pyridin-2-yl)methyl)-N-((7-chloro-8-fluoroimidazo[1,5-a]pyridin-1-yl)methyl)-1H-pyrazole-4-carboxamide]	< 1	
O=C(NCc1ncn2ccc(Cl)c(F)c12)c1cn(Cc2cn3cc(C4CC4)cc(CO)c3n2)nn1 [Example I-181, N-((7-chloro-8-fluoroimidazo[1,5-a]pyridin-1-yl)methyl)-1-((6-cyclopropyl-8-(hydroxymethyl)imidazo[1,2-a]pyridin-2-yl)methyl)-1H-1,2,3-triazole-4-carboxamide]	< 1	
O=C(O)c1cnn(-c2cc(C3CC3)cn3cc(Cn4cc(C(=O)NCc5ncn6ccc(Cl)c(F)c56)nn4)nc23)c1 [Example I-230, 1-(2-((4-(((7-chloro-8-fluoroimidazo[1,5-a]pyridin-1-yl)methyl)carbamoyl)-1H-1,2,3-triazol-1-yl)methyl)-6-cyclopropylimidazo[1,2-a]pyridin-8-yl)-1H-pyrazole-4-carboxylic acid]	< 1	
O=C(NCc1ncn2ccc(Cl)cc12)c1cnn(Cc2cc3ncc(C4CC4)cc3[nH]2)c1 [Example I-84, N-((7-chloroimidazo[1,5-a]pyridin-1-yl)methyl)-1-((6-cyclopropyl-1H-pyrrolo[3,2-b]pyridin-2-yl)methyl)-1H-pyrazole-4-carboxamide]	10 to 100	
O=C(NCc1ncn2ccc(Cl)c(F)c12)c1cn(Cc2nc3cc(C4CC4)ccn3n2)nn1 [Example I-178, N-((7-chloro-8-fluoroimidazo[1,5-a]pyridin-1-yl)methyl)-1-((7-cyclopropyl-[1,2,4]triazolo[1,5-a]pyridin-2-yl)methyl)-1H-1,2,3-triazole-4-carboxamide]	10 to 100	
CCc1cccc2nc(Cn3cc(C(=O)NCc4ncn5ccc(Cl)cc45)cn3)cn12 [Example I-46, N-((7-chloroimidazo[1,5-a]pyridin-1-yl)methyl)-1-((5-ethylimidazo[1,2-a]pyridin-2-yl)methyl)-1H-pyrazole-4-carboxamide]	10 to 100	
COCc1nn(Cc2ccc(Cn3ccccc3=O)cc2)cc1C(=O)NCc1c(C#N)ccc(OC)c1F [reference compound]		1 to 10
NCc1cc(C2CC2)cn2cc(Cn3cc(C(=O)NCc4ncn5ccc(Cl)c(F)c45)nn3)nc12 [Example I-298, 1-((8-(aminomethyl)-6-cyclopropylimidazo[1,2-a]pyridin-2-yl)methyl)-N-((7-chloro-8-fluoroimidazo[1,5-a]pyridin-1-yl)methyl)-1H-1,2,3-triazole-4-carboxamide]	< 1	
Cc1ccn2cnc(CNC(=O)c3cnn(Cc4cn5cc(C6CC6)ccc5n4)c3)c2c1 [Example I-4, 1-((6-cyclopropylimidazo[1,2-a]pyridin-2-yl)methyl)-N-((7-methylimidazo[1,5-a]pyridin-1-yl)methyl)-1H-pyrazole-4-carboxamide]	1 to 10	
Cc1c(Cl)ccc2nc(Cn3cc(C(=O)NCc4ncn5ccc(Cl)cc45)cn3)cn12 [Example I-7, 1-((6-chloro-5-methylimidazo[1,2-a]pyridin-2-yl)methyl)-N-((7-chloroimidazo[1,5-a]pyridin-1-yl)methyl)-1H-pyrazole-4-carboxamide]	1 to 10	
O=C(NCc1ncn2ccc(Cl)c(F)c12)c1cn(Cc2cn3cc(C4CC4)cc(-n4cn[nH]c(=O)c4=O)c3n2)nn1 [Example I-247, N-((7-chloro-8-fluoroimidazo[1,5-a]pyridin-1-yl)methyl)-1-((6-cyclopropyl-8-(5,6-dioxo-5,6-dihydro-1,2,4-triazin-4(1H)-yl)imidazo[1,2-a]pyridin-2-yl)methyl)-1H-1,2,3-triazole-4-carboxamide]	< 1	
CC1CC1c1ccc2nc(Cn3cc(C(=O)NCc4ncn5ccc(Cl)cc45)cn3)cn2c1 (stereo not drawn) [Example I-43, N-((7-chloroimidazo[1,5-a]pyridin-1-yl)methyl)-1-((6-(2-methylcyclopropyl)imidazo[1,2-a]pyridin-2-yl)methyl)-1H-pyrazole-4-carboxamide]	< 1	
